Laboratory results taken from US9795139B2, “Molecules having pesticidal utility, and intermediates, compositions, and processes, related thereto” (priority 2015, dated 2017).

How the values were obtained:
Type in all cases: in vivo
[1] = tested on: Beet Armyworm (Spodoptera exigua, LAPHEG); assay: Bioassay on Beet Armyworm (BAW), 128-well diet tray assay; conditions: 168 h, 50 μg/cm^2 on artificial diet, second instar larvae, 25° C., five to seven days, average of eight wells, read-out: BAW % Control (or Mortality) rating
Experimental: (§1) Certain molecules disclosed in this document were tested against BAW and CL using procedures described in the following examples. In the reporting of the results, the “BAW & CL Rating Table” was used (See Table Section).
Bioassays on BAW were conducted using a 128-well diet tray assay. One to five second instar BAW larvae were placed in each well (3 mL) of the diet tray that had been previously filled with approximately 1.5 mL of artificial diet to which 50 μg/cm^2 of the test molecule (dissolved in 50 μL of 90:10 acetone-water mixture) had been applied (to each of eight wells) and then allowed to dry. Trays were covered with a clear self-adhesive cover, vented to allow gas exchange, and held at 25° C., 14:10 light-dark for five to seven days. Percent mortality was recorded for the larvae in each well; activity in the eight wells was then averaged. The results are indicated in the table entitled “Table ABC: Biological Results” (See Table Section).

[2] = tested on: Cabbage Looper (Trichoplusia ni, TRIPNI); assay: Bioassay on Cabbage Looper (CL), 128-well diet tray assay; conditions: 168 h, 50 μg/cm^2 on artificial diet, second instar larvae, 25° C., five to seven days, average of eight wells, read-out: CL % Control (or Mortality) rating
Experimental: as §1
Bioassays on CL were conducted using a 128-well diet tray assay. one to five second instar CL larvae were placed in each well (3 mL) of the diet tray that had been previously filled with 1 mL of artificial diet to which 50 μg/cm^2 of the test molecule (dissolved in 50 μL of 90:10 acetone-water mixture) had been applied (to each of eight wells) and then allowed to dry. Trays were covered with a clear self-adhesive cover, vented to allow gas exchange, and held at 25° C., 14:10 light-dark for five to seven days. Percent mortality was recorded for the larvae in each well; activity in the eight wells was then averaged. The results are indicated in the table entitled “Table ABC: Biological Results” (See Table Section).

[3] = tested on: Yellow Fever Mosquito (Aedes aegypti, AEDSAE); conditions: about 1 day-old larvae, 96-well plate from 4000 ppm DMSO master, 3 days at room temperature
Experimental: Certain molecules disclosed in this document were tested against YFM using procedures described in the following paragraph. In the reporting of the results, the “GPA & YFM Rating Table” was used (See Table Section).
Master plates containing 400 μg of a molecule dissolved in 100 μL of dimethyl sulfoxide (DMSO) (equivalent to a 4000 ppm solution) are used. A master plate of assembled molecules contains 15 μL per well. To this plate, 135 μL of a 90:10 water/acetone mixture is added to each well. A robot is programmed to dispense 15 μL aspirations from the master plate into an empty 96-well shallow plate (“daughter” plate). There are 6 reps (“daughter” plates) created per master. The created “daughter” plates are then immediately infested with YFM larvae.
The day before plates are to be treated, mosquito eggs are placed in Millipore water containing liver powder to begin hatching (4 g. into 400 mL). After the “daughter” plates are created using the robot, they are infested with 220 μL of the liver powder/larval mosquito mixture (about 1 day-old larvae). After plates are infested with mosquito larvae, a non-evaporative lid is used to cover the plate to reduce drying. Plates are held at room temperature for 3 days prior to grading. After 3 days, each well is observed and scored based on mortality. The results are indicated in the table entitled “Table ABC: Biological Results” (See Table Section).

Compound	mortality at 50 µg/cm2 [1] [%]	mortality at 50 µg/cm2 [2] [%]	YFM % Control (or Mortality) rating [3]
O=C1CCC(NC(=O)c2cc(NC(=O)[C@H]3[C@H](c4cc(Cl)cc(Cl)c4)C3(Cl)Cl)ccc2Cl)CC1 (relative stereo) [Molecule F65, trans-2-Chloro-5-(2,2-dichloro-3-(3,5-dichlorophenyl)cyclopropane-1-carboxamido)-N-(4-oxocyclohexyl)benzamide]	0 to 50	50 to 100	A (80-100)
O=C(NC1CCS(=O)(=O)C1)c1cc(NC(=O)[C@H]2[C@H](c3cc(Cl)c(Cl)c(Cl)c3)C2(Cl)Cl)ccc1Cl (relative stereo) [PF19, trans-2-Chloro-5-(2,2-dichloro-3-(3,4,5-trichlorophenyl)cyclopropane-1-carboxamido)-N-(1,1-dioxidotetrahydrothiophen-3-yl)benzamide]	50 to 100	50 to 100	B (More than 0-Less than 80)
Cc1c(Cl)cc([C@H]2[C@H](C(=O)Nc3ccc(Cl)c(C(=O)NC4CC(F)(F)C4)c3)C2(Cl)Cl)cc1Cl (relative stereo) [Molecule F48, trans-2-Chloro-5-(2,2-dichloro-3-(3,5-dichloro-4-methylphenyl)cyclopropanecarboxamido)-N-(3,3-difluorocyclobutyl)benzamide]	50 to 100	50 to 100	A (80-100)
O=C(N[C@@H]1CON(CC(F)(F)F)C1=O)c1cc(NC(=O)C2C(c3ccc(Cl)c(Cl)c3)C2(Cl)Cl)ccc1Cl (stereo in doubt) [Molecule F79, trans-2-Chloro-5-(2,2-dichloro-3-(3,4-dichlorophenyl)cyclopropane-1-carboxamido)-N—((R)-3-oxo-2-(2,2,2-trifluoroethyl)isoxazolidin-4-yl)benzamide]	50 to 100	50 to 100	A (80-100)
N#CC1(NC(=O)c2cc(NC(=O)[C@H]3[C@H](c4cc(Cl)cc(Cl)c4)C3(Cl)Cl)ccc2Cl)CC1 [Molecule F75, 2-Chloro-N-(1-cyanocyclopropyl)-5-((1R,3R)-2,2-dichloro-3-(3,5-dichloro-phenyl)cyclopropane-1-carboxamido)benzamide]			A (80-100)
O=C(NC1CN(C(=O)C2CC2)C1)c1cc(NC(=O)[C@H]2[C@H](c3cc(Cl)cc(Cl)c3)C2(Cl)Cl)ccc1Cl (relative stereo) [PF9, trans-2-chloro-N-(1-(cyclopropanecarbonyl)-azetidin-3-yl)-5-(2,2-dichloro-3-(3,5-dichlorophenyl)cyclopropane-1-carboxamido)benzamide]	50 to 100	50 to 100	B (More than 0-Less than 80)
CN(C(=O)c1cc(NC(=O)[C@H]2[C@H](c3cc(Cl)c(Cl)c(Cl)c3)C2(Cl)Cl)ccc1Cl)C1(C#N)CC1 (relative stereo) [PF21, trans-2-Chloro-N-(1-cyanocyclopropyl)-5-(2,2-dichloro-3-(3,4,5-trichloro-phenyl)cyclopropane-1-carboxamido)-N-methylbenzamide]	50 to 100	50 to 100	B (More than 0-Less than 80)
O=C(NC1CCC(F)(F)CC1)c1cc(NC(=O)[C@H]2[C@H](c3cc(Cl)cc(Cl)c3)C2(Cl)Cl)ccc1Cl (relative stereo) [Molecule F43, trans-2-Chloro-5-(2,2-dichloro-3-(3,5-dichlorophenyl)cyclopropanecarboxamido)-N-(4,4-difluorocyclohexyl)benzamide]	50 to 100	50 to 100	A (80-100)
C[C@]1(c2cc(Cl)cc(Cl)c2)[C@H](C(=O)Nc2ccc(Cl)c(C(=O)NC3CC(F)(F)C3)c2)C1(Cl)Cl (relative stereo) [Molecule F61, trans-2-chloro-5-(2,2-dichloro-3-(3,5-dichloro-phenyl)-3-methylcyclopropane-1-carboxamido)-N-(3,3-difluorocyclobutyl)-benzamide]	50 to 100	50 to 100	A (80-100)
COc1cc([C@H]2[C@H](C(=O)Nc3ccc(Cl)c(C(=O)NC4(C#N)CC4)c3)C2(Cl)Cl)cc(F)c1Br (relative stereo) [Molecule F83, trans-5-(3-(4-Bromo-3-fluoro-5-methoxyphenyl)-2,2-dichlorocyclopropane-1-carboxamido)-2-chloro-N-(1-cyanocyclopropyl)benzamide]	50 to 100	50 to 100	A (80-100)
N#CC1(NC(=O)c2cc(NC(=O)[C@H]3[C@H](c4cc(Cl)c(Cl)c(Cl)c4)C3(Cl)Cl)ccc2Cl)CC1 [Molecule F63, 2-Chloro-N-(1-cyanocyclopropyl)-5-((1R,3R)-2,2-dichloro-3-(3,4,5-trichloro-phenyl)cyclopropane-1-carboxamido)benzamide]	50 to 100	50 to 100	A (80-100)
O=C(NC1CC1(F)F)c1cc(NC(=O)[C@H]2[C@H](c3cc(Cl)cc(Cl)c3)C2(Cl)Cl)ccc1Cl (relative stereo) [PF23, trans-2-Chloro-5-(2,2-dichloro-3-(3,5-dichlorophenyl)cyclopropane-1-carboxamido)-N-(2,2-difluorocyclopropyl)benzamide]	50 to 100	50 to 100	A (80-100)
N#CC1(NC(=O)c2cc(NC(=O)[C@H]3[C@H](c4cc(F)c(Br)c(F)c4)C3(Cl)Cl)ccc2Cl)CC1 (relative stereo) [Molecule F82, trans-5-(3-(4-Bromo-3,5-difluorophenyl)-2,2-dichlorocyclopropane-1-carboxamido)-2-chloro-N-(1-cyanocyclopropyl)benzamide]	50 to 100	50 to 100	A (80-100)
O=C(NC1CCC1)c1cc(NC(=O)C2C(c3cc(Cl)c(Cl)c(Cl)c3)C2(Cl)Cl)ccc1Cl (stereo not drawn) [Molecule F42, trans-2-Chloro-N-cyclobutyl-5-(2,2-dichloro-3-(3,4-trichlorophenyl)cyclopropanecarboxamido)benzamide]	50 to 100	50 to 100	D (No activity noticed in this bioassay)
N#CC1CCC(NC(=O)c2cc(NC(=O)[C@H]3[C@H](c4cc(Cl)cc(Cl)c4)C3(Cl)Cl)ccc2Cl)C1 (relative stereo) [Molecule F35, trans-2-Chloro-N-(3-cyanocyclopentyl)-5-(2,2-dichloro-3-(3,5-dichlorophenyl)cyclopropanecarboxamido)benzamide]	50 to 100	50 to 100	A (80-100)
N#CC1(NC(=O)c2cc(NC(=O)[C@H]3[C@H](c4cc(Cl)cc(C(F)(F)F)c4)C3(Cl)Cl)ccc2Cl)CC1 (relative stereo) [Molecule F27, trans-2-Chloro-N-(1-cyanocyclopropyl)-5-(2,2-dichloro-3-(3-chloro-5-(trifluoromethyl)phenyl)cyclopropanecarboxamido)benzamide]	50 to 100	50 to 100	
O=C(NC1CC(F)(F)C1)c1cc(NC(=O)[C@H]2[C@H](c3cc(Cl)c(Cl)cc3Cl)C2(Cl)Cl)ccc1Cl (relative stereo) [Molecule F20, trans-2-Chloro-5-(2,2-dichloro-3-(2,4,5-trichlorophenyl)cyclopropanecarboxamido)-N-(3,3-difluorocyclobutyl)benzamide]	50 to 100	50 to 100	
